According to the supplement of paper PMC11451515:

Tests used:
Settings in all cases: 48 h
[1] = tested on: P12-Ichikawa; assay: cell viability relative to DMSO control; higher = less cytotoxic
Procedure, shortened: (§1)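 Viability values are per-plate percentages of DMSO wells, with background from cell-free wells. Library compounds in DMSO were pin-dosed, in an 11-point threefold series from 47 μM to 0.79 nM, onto NOMO1 or SEM (500 cells/well) or P12-Ichikawa (1000 cells/well) leukemia cells in 1536-well plates (5 μl). Those cells had been adapted for at least four passages in each medium, and CellTiter-Glo One luminescence was read after 48 h at 37°C.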

[2] = tested on: SEM cells; assay: as above
Procedure, shortened: as §1

[3] = tested on: NOMO1; assay: as above
Procedure, shortened: as §1

[4] = tested on: P12-Ichikawa; assay: AUC of viability dose-response curve (% viability x log10 dose units); higher = less sensitive
Procedure, shortened: (§2)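 Leukemia cells adapted to each medium were seeded in 1536-well plates (500 or 1000 cells/well). They were dosed with library compounds in DMSO at 11 threefold doses, 47 μM to 0.79 nM, for 48 h at 37°C. CellTiter-Glo One luminescence was normalised per plate to DMSO and cell-free wells. Area under the curve was integrated by trapezoidal rule over log10 doses on a four-parameter log-logistic fit; curves exceeding full viability were scaled and curves failing quality control removed.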

[5] = tested on: SEM cells; assay: as above
Procedure, shortened: as §2

[6] = tested on: NOMO1; assay: as above
Procedure, shortened: as §2

OC1=CC=C(C=C1)C/2=C/C3=C(OC2)C=C(O)C=C3
cell viability [%]
Settings | [1] | [2] | [3]
HPLM + 10% dialyzed FBS, 0.000781 µM | 109 | 107 | 118
HPLM + 10% dialyzed FBS, 0.00234 µM | 91.7 | 111 | 123
HPLM + 10% dialyzed FBS, 0.00702 µM | 111 | 112 | 114
HPLM + 10% dialyzed FBS, 0.0211 µM | 117 | 109 | 111
HPLM + 10% dialyzed FBS, 0.0632 µM | 109 | 114 | 118
HPLM + 10% dialyzed FBS, 0.19 µM | 116 | 120 | 111
HPLM + 10% dialyzed FBS, 0.569 µM | 104 | 101 | 100
HPLM + 10% dialyzed FBS, 1.71 µM | 80.2 | 84.9 | 82.8
HPLM + 10% dialyzed FBS, 5.12 µM | 19.8 | 21.2 | 60.9
HPLM + 10% dialyzed FBS, 15.4 µM | 2.76 | 2.3 | 26.3
HPLM + 10% dialyzed FBS, 46.1 µM | 1.12 | 1.5 | 5.22
RPMI 5 mM glucose + 10% FBS, 0.000781 µM | 108 | 108 | 97.2
RPMI 5 mM glucose + 10% FBS, 0.00234 µM | 121 | 117 | 108
RPMI 5 mM glucose + 10% FBS, 0.00702 µM | 123 | 122 | 117
RPMI 5 mM glucose + 10% FBS, 0.0211 µM | 110 | 115 | 99.8
RPMI 5 mM glucose + 10% FBS, 0.0632 µM | 126 | 109 | 108
RPMI 5 mM glucose + 10% FBS, 0.19 µM | 111 | 106 | 108
RPMI 5 mM glucose + 10% FBS, 0.569 µM | 107 | 80.8 | 104
RPMI 5 mM glucose + 10% FBS, 1.71 µM | 88.2 | 93.1 | 93.3
RPMI 5 mM glucose + 10% FBS, 5.12 µM | 24.3 | 23.7 | 89.4
RPMI 5 mM glucose + 10% FBS, 15.4 µM | 1.45 | 1.46 | 23.9
RPMI 5 mM glucose + 10% FBS, 46.1 µM | -0.00081 | 1.13 | 9.27
RPMI 5 mM glucose + 10% dialyzed FBS, 0.000781 µM | 102 | 111 | 108
RPMI 5 mM glucose + 10% dialyzed FBS, 0.00234 µM | 112 | 107 | 118
RPMI 5 mM glucose + 10% dialyzed FBS, 0.00702 µM | 111 | 125 | 110
RPMI 5 mM glucose + 10% dialyzed FBS, 0.0211 µM | 113 | 90.8 | 109
RPMI 5 mM glucose + 10% dialyzed FBS, 0.0632 µM | 111 | 99.1 | 101
RPMI 5 mM glucose + 10% dialyzed FBS, 0.19 µM | 106 | 108 | 105
RPMI 5 mM glucose + 10% dialyzed FBS, 0.569 µM | 102 | 85.5 | 111
RPMI 5 mM glucose + 10% dialyzed FBS, 1.71 µM | 74.9 | 89.1 | 106
RPMI 5 mM glucose + 10% dialyzed FBS, 5.12 µM | 16.2 | 25 | 96.8
RPMI 5 mM glucose + 10% dialyzed FBS, 15.4 µM | 2.96 | 2.21 | 33.1
RPMI 5 mM glucose + 10% dialyzed FBS, 46.1 µM | 0.54 | 1.74 | 14.9

AUC of viability dose-response curve
Settings | [4] | [5] | [6]
HPLM + 10% dialyzed FBS | 354 | 355 | 368
RPMI 5 mM glucose + 10% FBS | 356 | 358 | 411
RPMI 5 mM glucose + 10% dialyzed FBS | 349 | 362 | 418
